For the experiment, the system named is MUC5AC transcription. In words: MUC5AC promoter-luciferase reporter assay (pMUC5AC3.7luc) in human epithelial cells. It is filed as cell-based. The method, then:
The luciferase assay was performed as follows: expression plasmids fp38α(AF) and fp38β(AF) were previously described in Shuto, et al. (2001) Proc. Natl, Acad. Sci. U.S.A. 98, pages 8774-9. The expression plasmids p110, p85α, Akt KD, and Akt WT were provided by D. Stokoe (University of California, San Francisco). The reporter construct MUC5AC contained 3.7-kb 5′-flanking region of the human MUC5AC mucin gene in a luciferase reporter vector pGL3 (Li, et al. 1998, J. Biol. Chem. 273, 68126820). Transient transfections of cells were performed in triplicate with Trans IT-LT1 (Panvera, Madison, WT) following the manufacturer's instructions. Forty-two hours after transfection, the cells were treated with NTHi for 4 h and then harvested for use in the luciferase assay. For experiments with inhibitors, HM3 cells stably transfected with MUC5AC-luciferase plasmid were pretreated with inhibitors for 1-2 h, then treated with NTHi for 4 h and harvested for luciferase assays. Luciferase assays were performed on a Monolight 3010 luminometer for 15 s (Analytical Luminescence, San Diego, Calif.). The NTHi-dependent fold induction was calculated relative to the luciferase light units obtained in the absence of NTHi treatment. The normalized luciferase activity was thus expressed as relative luciferase activity (fold induction).
On the technique in general: In a reporter assay the amount or activity of a reporter protein is the signal.

As for `C[S+]([O-])c1ccc(-c2nc(-c3ccncc3)c(-c3ccc(F)cc3)[nH]2)cc1` (stereo not shown) [SB203580], the “effect on NTHi-induced MUC5AC transcription (luciferase activity)” value (HM3 cells stably transfected with pMUC5AC3.7luc, pretreated with inhibitor 1-2 h, then NTHi SCF 4 h) is given as “inhibited MUC5AC induction in response to NTHi cytoplasmic proteins in a dose-dependent manner”. Besides, where the note is “HM3 cells stably transfected with pMUC5AC3.7luc, wortmannin pretreatment first”, the “effect on NTHi-induced MUC5AC transcription in cells already pretreated with wortmannin” value is reported as “still capable of inhibiting NTHi-induced MUC5AC transcription”.
Turning to Polymyxin B, under “LPS pretreated with various concentrations of polymyxin B 10 min at 4° C., HM3 pMUC5AC3.7luc cells, 4 h”, the “effect on MUC5AC transcription induced by LPS from S. typhimurium” value is given as “significantly reduced MUC5AC transcription”. For the setting “SCF pretreated with various concentrations of polymyxin B for 10 min, HM3 pMUC5AC3.7luc cells”, the “effect on MUC5AC transcription induced by NTHi soluble cytoplasmic fraction” value is recorded as “no significant reduction in NTHi-induced MUC5AC transcription”.

The record behind these values is patent publication US20020151491A1, “Composition and method for treating the over-production of mucin in diseases such as otitis media using an inhibitor of MUC5AC” (priority 2000, published 2002).
